This is an account of results in PMC6481345, “A novel anti-melanoma SRC-family kinase inhibitor” (Oncotarget, 2019).

Entries after “also recorded” stand apart in the source; their conditions may differ.

Data set [1] in a line: Clinical signs of toxicity in tumor bearing mice. It is filed as in vivo. Conditions: daily intraperitoneal SAB298. Here is the method: All procedures involving animals were approved by the Institutional Animal Care and Use Committee of Yale University. YUSIK melanoma cells were grown to 80% confluency in 150 cm^2 flasks, detached by trypsinization, washed with PBS, and cell pellets were resuspended in 1:1 mixture of PBS and matrigel (BD Bioscience Cat #354234) to sustain cell viability. The cells (4 × 10^6/100 µl) were injected subcutaneously in the back flank of six weeks old female athymic Nude-Foxn1nu (nu/nu) mice (Charles River Laboratories, Wilmington, MA), and tumors were measuring daily with a caliper (length, width, and depth). When tumors reached palpable size (between 25–40 mm^3), the animals were randomized by tumor size and body weigh into two groups and were daily injected intraperitoneally with SAB298 (batch #AU0588-91, Sabila Biosciences LLC, 5 Overlook Road, New City, New York, 10956) or vehicle as controls (N = 6/each). […] The vehicle contained the same reagents but without SAB298.
The tumors size and body weight were measured daily and the mice were checked for clinical signs of toxicity, such as lethargy, neurological symptoms, diarrhea, discharges, morbidity, piloerection and weight loss (>20%).

In the next data set the test system is MITF. Description: Western blot, MITF levels. The note with it: melanoma cell lines, SAB298 0.5 µM, UM-164 1 µM, 6 hrs, SCH772984 0.5 µM. The data set is classed as cell-based, human. Here is the method:
We used standard techniques to identify changes in intracellular signaling in response to various treatments. Briefly, melanoma cells were incubated with test compounds, using DMSO as a control, collected by scraping on ice, and lysed in RIPA buffer supplemented with protease and phosphatase inhibitors (MA #78428, and #78425, respectively, Thermo Fisher Scientific, Waltham, MA). Protein concentrations were measured with the BioRad kit (Bio-Rad Laboratories, Hercules, CA), SDS sample buffer was added, extracts were heated at 95°C, sonicated and centrifuged. Cell extracts (20 µg/lane) were fractionated in 3%–8% or 4–12 % tris-acetate gel (NP0006, NuPAGE Life Technologies). We probed with the following primary antibodies: phospho-SRC Tyr416 (CST #2101S), pSRC Tyr527 (#2105), SRC (#2108), pPI3K p85 Y458/p55 Y199 (#4228), LYN (C13F9, #2796), FYN (#4023), phospho-MEK1/2 pSer217/221 (#9121), MEK1/2, phospho-ERK2 pThr202/Tyr204 (#9101), ERK1/2 (#9107), phospho-p38 kinase T180/Y182 (#9216), p38 kinase (#9212), PP2A (#2259), pSHP2 Y542 (#3751), SHP2 (D50F2, #3397), ERBB2 (D8F12 XP(R), #4290), phospho-ERBB2 Y1196 (D66B7 #6942), MYC (D84C12, #5605); GAPDH (14C10, #2118), all from Cell Signaling Technology, Beverly, MA; phospho-PP2A Y307 (AF3989), and MITF (clone D5, #AF5769) from R&D Systems, Inc., Minneapolis, MN; p27KIP1 (#10241) and YES (#610375) from BD Biosciences, San Jose, CA; Cyclin D1 (#04-221) and β-actin (mouse mAb A5316) from MilliporeSigma, St. Louis, MO; PI3K Antibody (p85 alpha, NSJ R30480) from Bioreagents, 9921 Carmel Mountain Rd #352, San Diego, CA. All antibodies were used at the concentrations recommended by the manufacturers.

The next data set concerns pY416 SFK. Put plainly: Western blot, auto-phosphorylated Y416 of SFK. It is filed as cell-based, human. The note with it: melanoma cell lines; SAB298 0.5 µM, 5 hrs. The procedure: The effect of SAB298 on a panel of 36 recombinant kinases, was screed with the radioisotope filter binding assay employing 10 concentrations of the compound with 10 µM ATP (Reaction Biology Corporation, Malvern, PA). In addition, we tested the endogenous kinome response to SAB298 (0.05 µM, 0.5 µM and 5 µM) in lysates from two melanoma cell lines (YUSIV and YUSIK) employing the KiNativ® platform (ActivX Biosciences Inc., La Jolla, CA). KiNativ® is a robust, high performance mass spectrometry (LC-MS^2) assay that uses biotinylated probes to measure relevant changes in the affinity to the ATP-binding sites of 205 native kinases as a function of cellular context. We also validated SAB298 effect on the activity of SRC-family kinases by probing for phosphorylated Y416, the marker of activated SFKs, with anti-IEDNEpYTAR antibodies (also known as Y419, #2101, Cell Signaling Technology, Beverly, MA). In some cases the cells were incubated overnight with 20 µM proteasome inhibitor MG-132 (CAS 133407-82-6, Millipore Sigma, Burlington, MA) to rescue degradation.
We used standard techniques to identify changes in intracellular signaling in response to various treatments. […] Protein concentrations were measured with the BioRad kit (Bio-Rad Laboratories, Hercules, CA), SDS sample buffer was added, extracts were heated at 95°C, sonicated and centrifuged. […]
In general terms: Immunoblotting shows a protein as a band on a membrane.

Data set [2] has as its system CCRF-CEM leukemia cell line. Put plainly: NCI-60 human tumor cell line screen. The data set is classed as cell-based. The procedure: (§1) We first tested the impact of SAB298 on NCI-60 human tumor cell lines that included eight melanomas (performed by the NCI Development Therapeutics Program).
(§2) SFK-inhibitors were tested on a panel of NCI-60 cell lines (Supplementary Table 1) and 30 melanoma cell lines and NBMEL, i.e., normal human melanocytes isolated from a newborn foreskin (Table 1 and Supplementary Table 2). The Yale melanoma cohort designated YU originated from tumors excised to improve patient quality of life and used with participants’ informed consent according to Health Insurance Portability and Accountability Act (HIPAA) regulations with Human Investigative Committee protocol.
(§3) Supplementary Table 1: Cellular activity of SAB298 in a Panel of NCI-60 cancer cell lines*
(§4) measured protein; and TI is LC50/GI50.
(§5) Supplementary Table 2: Description of Melanoma Cell lines. See Supplementary_Table_2

Another data set relates to M14 melanoma cell line. Put plainly: NCI-60 human tumor cell line screen. The data set is classed as cell-based. Here is the method:
as §1, §2, §3, §4, §5

In another data set the test system is HOP-62 NSCLC cell line. Put plainly: NCI-60 human tumor cell line screen. It is filed as cell-based. The procedure: as §1, §2, §3, §4, §5
Data set [3] has as its system SK-MEL-5 melanoma cell line. Put plainly: NCI-60 human tumor cell line screen. It is filed as cell-based. The procedure: as §1, §2, §3, §4, §5
In a further data set the test system is SR leukemia cell line. Put plainly: NCI-60 human tumor cell line screen. It is filed as cell-based. The procedure:
as §1, §2, §3, §4, §5

The test system of data set [4] is SF-268 CNS cancer cell line. Put plainly: NCI-60 human tumor cell line screen. It is filed as cell-based. The procedure: as §1, §2, §3, §4, §5
In data set [5] the test system is MCF7 breast cancer cell line. Description: NCI-60 human tumor cell line screen. It is filed as cell-based. The procedure:
as §1, §2, §3, §4, §5

The mark [6] stands for this setting: 50% growth inhibition, five dose, average of 2 experiments.
[7] abbreviates: cytotoxic concentration, 50% reduction in measured protein, read-out: LC50 (the source's name).

For `Nc1ncnc2c1c(-c1ccc(Oc3ccccc3)cc1)nn2C[C@@H]1SSC[C@@H]1O` [SAB298, (3S, 4S)-3-((4-amino-3-(4-phenoxyphenyl)-1H-pyrazolo[3,4-d]pyrimidin-1-yl)methyl)-1,2-dithiolan-4-ol], in data set [1], the “Clinical signs of toxicity (lethargy, neurological symptoms, diarrhea, discharges, morbidity, piloerection, weight loss >20%)” value is recorded as “None of them or any other abnormal indication were observed”. In addition, in the data set on MITF, the MITF levels entry is “suppressed MITF levels in four out of seven melanoma cell lines”. Besides, in the data set with pY416 SFK, the “pY416 SFK level” value is “consistently suppressed; also recorded: downregulated pSFK Y416”. The GI50 (commonly the concentration at which growth is held to half of that of the control) in data set [2] (setting [6]) turned out to be 61 nM; with M14 melanoma cell line (setting [6]), 21 nM; in the data set on HOP-62 NSCLC cell line (setting [6]) it was 227 nM; in data set [3] (setting [6]) it was 251 nM; in the data set on SR leukemia cell line (setting [6]), 38 nM; in [4] (setting [6]) it was 38 nM. For the same molecule, growth in data set [5] (setting [6]) was halved (GI50) at 138 nM. In addition, the CC50 in data set [2] (setting [7]) was above 100000 nM; with M14 melanoma cell line (setting [7]), 105 nM; in the data set on HOP-62 NSCLC cell line (setting [7]), 23600 nM; in data set [3] (setting [7]), 2680 nM; in the data set with SR leukemia cell line (setting [7]), above 100000 nM; in data set [4] (setting [7]), above 100000 nM. The CC50 in data set [5] (setting [7]) stood at 53000 nM.
